According to patent US10851096B2, “Aryl and heteroaryl amides for use as anti-proliferative, anti-thrombotic, and anti-viral agents” (Rutgers, The State University of New Jersey, priority 2016, dated 2020):

What was measured:
Assay type in all cases: in vivo
[1] = tested on: H1299 lung cancer xenograft; test: Mouse xenograft study, human H1299 lung cancer; details: for growth of tumor (tumor volume): 100 mg/kg IP
Protocol: 500,000 H1299 cells in 100 μl of PBS were injected subcutaneously into the right flank of 4-6 week NOD/SCIDg mice. Once tumors were palpable, the mice were randomized into 3 groups, each group had 6 mice: control mice were treated with vehicle (DMSO) intraperitoneally (IP) and the treatment groups with compound 1I (day 1, day 2, day 3 and day 4) or with compound 1Q (day 1, day 2, day 3, day 4, day 7 and day 8) at a dose of 100 mg/kg IP. Similar studies were conducted on compound 1Q dosed at 300 mg/kg in mice. Tumor size and body weights were measured three times a week and the tumor volume calculated.
Finally, based on the promising in vitro and cell culture experiments showing anti-Axl activity of certain compounds, the in vivo efficacies of compound 1I and compound 1Q using a murine SCID/human H1299 lung cancer xenograft model was investigated (FIG. 7A-E). As indicated, SCID mice were subcutaneously injected with 250,000 tumor cells in the hind flanks with human H1299 cells until palpable tumors were present. Subsequently, mice were injected every two days with vehicle, compound 1I or compound 1Q at a concentration of 100 mg/kg for up to 2 weeks. […] Taken together, these studies support the further development of TAM Ig1 inhibitors as anti-cancer therapeutics (FIGS. 7A-E).

[2] = Venous thromboembolism (VTE) mouse model; details: 200 mg/kg qd IP for three days
[3] = Cancer associated VTE mouse model; details: 200 mg/kg qd IP for three days

SMILES	growth of tumor (tumor volume) [1]	reduction in thrombus size [2]	tumor growth (volume) ([1]; 300 mg/kg IP)	reduction in thrombus size [3]
Cc1noc(C)c1CSc1ccccc1C(=O)N1CCN(c2cccc(C(F)(F)F)c2)CC1 [1I]	significantly suppressed growth of tumor	–	–	–
Cc1cc(CSc2ccccc2C(=O)NCCNc2ccc(C(F)(F)F)cc2[N+](=O)[O-])on1 [1Q]	significantly suppressed growth of tumor	approximately 37.3%	suppress tumor growth	45%
